Laboratory results reported in patent US9334246B2, “Substituted triazines for malaria treatment and chemoprophylaxis” (The United States of America, as represented by the …, priority 2013, dated 2016).
Converted amounts (≈) assume the structure as drawn.

How the values were obtained:
Assay type in all cases: cell-based, Plasmodium falciparum
P. falciparum W2 = experiment: Malaria SYBR Green Fluorescence Assay, W2 strain
P. falciparum C235 = experiment: Malaria SYBR Green Fluorescence Assay, C235 strain
P. falciparum D6 = experiment: Malaria SYBR Green Fluorescence Assay, D6 strain
[1] = Plasmodium falciparum, SYBR Green Assay

Molecule | W2 (P. falciparum W2; SYBR Green Assay) [ng/mL] | D6 (P. falciparum D6; SYBR Green Assay) [ng/mL] | W2 (SYBR Green Assay IC50) (P. falciparum W2) [µg/mL] | also measured
CC(C)(C)c1ccc(cc1)c2nc(nc(n2)C(Cl)(Cl)Cl)N3CCCN(CCO)CC3 [Compound 738] | 60.48 |  |  | C235 (P. falciparum C235; SYBR Green Assay): 239.9 ng/mL
NC1(CNc2nc(-c3ccc(C(Cl)(Cl)Cl)cc3)nc(C(Cl)(Cl)Cl)n2)CCOCC1 [Cmpd 311] | 47 | 81 |  | C235 (P. falciparum C235; SYBR Green Assay): 169 ng/mL
CCN1CCC(CNc2nc(Cc3ccccc3OC)nc(C(Cl)(Cl)Cl)n2)CC1 [Cmpd 293] | 13 | 48 |  | C235 (P. falciparum C235; SYBR Green Assay): 70 ng/mL
CCC(N)(CC)CNc1nc(-c2ccc(F)cc2)nc(C(Cl)(Cl)Cl)n1 [Cmpd 359] |  |  | 0.051 | C235 (SYBR Green Assay IC50) (P. falciparum C235): 0.095 µg/mL; D6 (SYBR Green Assay IC50) (P. falciparum D6): 0.045 µg/mL
CC(C)N1CCC(CNc2nc(-c3cccc(C(F)(F)F)c3)nc(C(Cl)(Cl)Cl)n2)CC1 [Cmpd 489] |  |  | 0.008 | C235 (SYBR Green Assay IC50) (P. falciparum C235): 0.01 µg/mL; D6 (SYBR Green Assay IC50) (P. falciparum D6): 0.014 µg/mL
CS(=O)(=O)c1ccc(-c2nc(NCCNCCO)nc(C(Cl)(Cl)Cl)n2)cc1 [Cmpd 98] | 366 | 448 |  | C235 (P. falciparum C235; SYBR Green Assay): 554 ng/mL
CCN1CCCC(Nc2nc(-c3ccc(N4CCCC4)cc3)nc(C(Cl)(Cl)Cl)n2)C1 (centres unmarked) [Cmpd 429] |  |  | 0.607 | C235 (SYBR Green Assay IC50) (P. falciparum C235): 0.912 µg/mL; D6 (SYBR Green Assay IC50) (P. falciparum D6): 0.791 µg/mL
ClC(Cl)(Cl)c1nc(Nc2ccc(cc2)n3cccn3)nc(n1)C(Cl)(Cl)Cl [Compound 732] | 160 | 386 |  | C235 (P. falciparum C235; SYBR Green Assay): 584 ng/mL
COc1ccc(-c2nc(NCC3CCN(C(C)C)CC3)nc(C(Cl)(Cl)Cl)n2)cc1OC [Cmpd 501] |  |  | 0.094 | C235 (SYBR Green Assay IC50) (P. falciparum C235): 0.241 µg/mL; D6 (SYBR Green Assay IC50) (P. falciparum D6): 0.362 µg/mL
CN(C)CCCNc1nc(-c2ccc(Cl)cc2)nc(C(Cl)(Cl)Cl)n1 [Cmpd 560] |  |  | 0.009 | C235 (SYBR Green Assay IC50) (P. falciparum C235): 0.018 µg/mL; D6 (SYBR Green Assay IC50) (P. falciparum D6): 0.02 µg/mL
CC(=O)N1CCN(c2nc(-c3ccc(Cl)c(Cl)c3)nc(C(Cl)(Cl)Cl)n2)CC1 [Example 3, 1-(4-(4-(3,4-dichlorophenyl)-6-(trichloromethyl)-1,3,5-triazin-2-yl)piperazin-1-yl)ethan-1-one] |  |  |  | IC50 (P. falciparum W2; [1]): 0.198 µg/mL (≈ 0.422 µM); IC50 (P. falciparum C235; [1]): 0.535 µg/mL (≈ 1.14 µM); IC50 (P. falciparum D6; [1]): 0.687 µg/mL (≈ 1.46 µM)
NC1CCN(CC1)C1═NC(═NC(═N1)C(Cl)(Cl)Cl)C1═CC═C(Cl)C(Cl)═C1 [Compound 622] |  |  | 0.036 | C235 (SYBR Green Assay IC50) (P. falciparum C235): 0.059 µg/mL; D6 (SYBR Green Assay IC50) (P. falciparum D6): 0.074 µg/mL
NC1CCCCC1Nc1nc(-c2ccc(Cl)c(Cl)c2)nc(C(Cl)(Cl)Cl)n1 (centres unmarked) [Compound 740, NC1CCCCC1NC1═NC(═NC(═N1)C1═CC(Cl)═C(Cl)C═Cl)C(Cl)(Cl)Cl] | 11 | 38 |  | C235 (P. falciparum C235; SYBR Green Assay): 23 ng/mL
COc1ccccc1-c1nc(NCCc2ccncc2)nc(C(Cl)(Cl)Cl)n1 [Cmpd 146] | 246 | 539 |  | C235 (P. falciparum C235; SYBR Green Assay): 804 ng/mL
CCN1CCCC(Nc2nc(Cc3ccc(OC)cc3)nc(C(Cl)(Cl)Cl)n2)C1 (centres unmarked) [Cmpd 81] | 601 | 633 |  | C235 (P. falciparum C235; SYBR Green Assay): 992 ng/mL
CC(C)CN1CCC(CC1)NC1═NC(═NC(═N1)C1═CC═CC═C1)C(Cl)(Cl)Cl [Compound 704] | 223 | 867 |  | C235 (P. falciparum C235; SYBR Green Assay): 525 ng/mL
CN1CCCC1CCNc1nc(-c2ccc(S(C)(=O)=O)cc2)nc(C(Cl)(Cl)Cl)n1 (centres unmarked) [Cmpd 75] |  | 635 |  | 
Cc1ccc(-c2nc(N3CC4CC3CN4C(=O)OC(C)(C)C)nc(C(Cl)(Cl)Cl)n2)cc1 (centres unmarked) [Compound 711, Cc1ccc(cc1)c2nc(nc(n2)C(Cl)(Cl)Cl)N3CC4CC3CN4C(═O)OC(C)(C)C] |  | 812 |  | 
COc1ccc(-c2nc(NCc3cccnc3)nc(C(Cl)(Cl)Cl)n2)cc1 [Cmpd 156] | 560 |  |  | 
ClC(Cl)(Cl)c1nc(NCc2ccccn2)nc(-c2ccc(-c3ccccc3)cc2)n1 [Cmpd 250] | 721 |  |  | C235 (P. falciparum C235; SYBR Green Assay): 858 ng/mL
COc1cccc(Cc2nc(NCCN3CCCC3)nc(C(Cl)(Cl)Cl)n2)c1 [Cmpd 82] | 805 |  |  | 
CN1CCCC1CCNc1nc(-c2ccc(N3CCCC3)cc2)nc(C(Cl)(Cl)Cl)n1 (centres unmarked) [Cmpd 370] |  |  |  | D6 (SYBR Green Assay IC50) (P. falciparum D6): 0.846 µg/mL
COc1ccc(-c2nc(NCCc3cnccn3)nc(C(Cl)(Cl)Cl)n2)c2ccccc12 [Cmpd 546] |  |  | 0.361 | C235 (SYBR Green Assay IC50) (P. falciparum C235): 0.701 µg/mL
ClC(Cl)(Cl)c1ccc(C(Cl)(Cl)Cl)cc1.FC(F)(F)c1cccc(-c2nc(NCCCN3CCCC3)nc(C(Cl)(Cl)Cl)n2)c1 [Cmpd 602] |  |  | 0.853 | 
COc1ncccc1Nc1nc(-c2ccc(S(C)(=O)=O)cc2)nc(C(Cl)(Cl)Cl)n1 [Compound 651, COc1ncccc1Nc2nc(nc(n2)C(Cl)(Cl)Cl)c3ccc(cc3)S(═O)(═O)C] |  |  | 0.577 | D6 (SYBR Green Assay IC50) (P. falciparum D6): 0.76 µg/mL
COc1ccc(-c2nc(NC3CCN(C)CC3)nc(C(Cl)(Cl)Cl)n2)cc1OC [Cmpd 399] |  |  | 0.705 | 
COc1ccccc1-c1nc(NCc2cccnc2)nc(C(Cl)(Cl)Cl)n1 [Cmpd 154] | 477 |  |  | 
COc1ccccc1Cc1nc(N2CCCN(C)CC2)nc(C(Cl)(Cl)Cl)n1 [Cmpd 289] | 311 | 810 |  | 

Molecule | W2 (P. falciparum W2; SYBR Green Assay) [ng/mL] | D6 (P. falciparum D6; SYBR Green Assay) [ng/mL] | W2 (SYBR Green Assay IC50) (P. falciparum W2) [µg/mL] | also measured
CSc1ccc(-c2nc(NCCc3cnccn3)nc(C(Cl)(Cl)Cl)n2)cc1 [Cmpd 543] |  |  | 0.669 | 
NC1(CNc2nc(-c3ccc(C(Cl)(Cl)Cl)cc3)nc(C(Cl)(Cl)Cl)n2)CC1 [Compound 679, NC1(CNC2═NC(═NC(═N2)C2═CC═C(C═C2)C(Cl)(Cl)Cl)C(Cl)(Cl)Cl)CC1] | 201 | 606 |  | 
CS(=O)(=O)c1ccc(-c2nc(NCc3ccncc3)nc(C(Cl)(Cl)Cl)n2)cc1 [Compound 650, CS(═O)(═O)c1ccc(cc1)c2nc(NCc3ccncc3)nc(n2)C(Cl)(Cl)Cl] |  |  | 0.803 | 
NC1(CNc2nc(-c3ccccc3)nc(C(Cl)(Cl)Cl)n2)CC1 [Compound 677, NC1(CNC2═NC(═NC(═N2)C2═CC═CC═C2)C(Cl)(Cl)Cl)CC1] | 527 |  |  | C235 (P. falciparum C235; SYBR Green Assay): 910 ng/mL
CS(=O)(=O)c1ccc(-c2nc(NCCc3ccccn3)nc(C(Cl)(Cl)Cl)n2)cc1 [Cmpd 180] | 478 | 819 |  | 
Clc1cc(Cl)cc(-c2nc(NCCc3cnccn3)nc(C(Cl)(Cl)Cl)n2)c1 [Cmpd 471] |  |  | 0.174 | 
COc1ccccc1-c1nc(NCCc2cccnc2)nc(C(Cl)(Cl)Cl)n1 [Cmpd 182] | 256 | 659 |  | 
ClC(Cl)(Cl)c1nc(NCc2cccnc2)nc(-c2ccc(-c3ccccc3)cc2)n1 [Cmpd 249] | 545 |  |  | C235 (P. falciparum C235; SYBR Green Assay): 755 ng/mL
Cc1ccc(-c2nc(NCc3ccncc3)nc(C(Cl)(Cl)Cl)n2)cc1 [Cmpd 134] | 453 | 521 |  | 
CN(CCc1ccccn1)c2nc(nc(n2)C(Cl)(Cl)Cl)c3ccc(cc3)C(C)(C)C [Compound 736] | 445.4 |  |  | 
CCN(CC)CCCC(C)Nc1nc(Nc2ccc(Cl)c(Cl)c2)nc(n1)C(Cl)(Cl)Cl [Compound 646] |  |  | 0.7354 | D6 (SYBR Green Assay IC50) (P. falciparum D6): 0.6727 µg/mL
CN(Cc1ccccc1c2cccnc2)c3nc(nc(n3)C(Cl)(Cl)Cl)c4ccc(cc4)C(Cl)(Cl)Cl [Compound 653] | 272.1 |  |  | 
NC1(CNc2nc(-c3cccc(C(F)(F)F)c3)nc(C(Cl)(Cl)Cl)n2)CCCCC1 [Compound 663, NC1(CNC2═NC(═NC(═N2)C2═CC(═CC═C2)C(F)(F)F)C(Cl)(Cl)Cl)CCCCC1] | 583 | 729 |  | 
CCN1CCC(CNc2nc(Nc3cccnc3OC)nc(C(Cl)(Cl)Cl)n2)CC1 [Cmpd 352] |  |  | 0.6372 | D6 (SYBR Green Assay IC50) (P. falciparum D6): 0.7908 µg/mL
COc1ccc(-c2nc(N3CCCN(C)CC3)nc(C(Cl)(Cl)Cl)n2)cc1OC [Cmpd 398] |  |  | 0.638 | 
Cc1ccc(-c2ccccc2-c2nc(N3CCCNCC3)nc(C(Cl)(Cl)Cl)n2)cc1 [Cmpd 263] | 960 |  |  | C235 (P. falciparum C235; SYBR Green Assay): 763 ng/mL
CS(═O)(═O)c1ccc(cc1)c2nc(nc(n2)C(Cl)(Cl)Cl)N3CCC(CC3)C(═O)N [Compound 690] | 670 |  |  | 
Clc1ccc(-c2nc(NCCc3cnccn3)nc(C(Cl)(Cl)Cl)n2)cc1Cl [Cmpd 470] |  |  | 0.07 | C235 (SYBR Green Assay IC50) (P. falciparum C235): 0.258 µg/mL
CN(C)C1CCC(Nc2nc(-c3ccc(C(Cl)(Cl)Cl)cc3)nc(C(Cl)(Cl)Cl)n2)CC1 (centres unmarked) [Cmpd 597] |  |  | 0.882 | 
CC(C)(C)c1ccc(-c2nc(N3CCOCC3)nc(C(Cl)(Cl)Cl)n2)cc1 [Compound 734, CC(C)(C)c1ccc(cc1)c2nc(nc(n2)C(Cl)(Cl)C1)N3CCOCC3] | 834 |  |  | 
Cc1ccc(-c2nc(N3CCN(CCO)CC3)nc(C(Cl)(Cl)Cl)n2)cc1 [Cmpd 416] |  |  | 0.381 | 
CC(C)(C)c1ccc(-c2nc(NCc3ccccn3)nc(C(Cl)(Cl)Cl)n2)cc1 [Cmpd 170] | 313 |  |  | 
CC(C)(C)OC(=O)N1CC2CC1CN2c1nc(-c2ccc(Cl)c(Cl)c2)nc(C(Cl)(Cl)Cl)n1 (centres unmarked) [Compound 705, CC(C)(C)OC(═O)N1CC2CC1CN2c3nc(nc(n3)C(Cl)(Cl)Cl)c4ccc(Cl)c(Cl)c4] | 851.8 |  |  | 
CN1CCCC1CCNc1nc(-c2ccc(-c3ccccc3)cc2)nc(C(Cl)(Cl)Cl)n1 (centres unmarked) [Cmpd 201] | 845 |  |  | 
OCCN1CCCN(c2nc(-c3ccc(N4CCCC4)cc3)nc(C(Cl)(Cl)Cl)n2)CC1 [Cmpd 465] |  |  | 0.222 | C235 (SYBR Green Assay IC50) (P. falciparum C235): 0.498 µg/mL
COc1ccc(-c2nc(NC3CCN(C)CC3)nc(C(Cl)(Cl)Cl)n2)cc1 [Cmpd 275] | 618 |  |  | C235 (P. falciparum C235; SYBR Green Assay): 699 ng/mL
COc1ccccc1-c1nc(NCc2ccncc2)nc(C(Cl)(Cl)Cl)n1 [Cmpd 135] | 461 | 765 |  | 
